Experimental data taken from patent publication US20030158540A1, “METHOD FOR DECREASING CATHETER-ASSOCIATED BACTERIURIA” (priority 2002, published 2003).

Tests used:
[1] = test system: catheter-associated urinary tract infections; conditions: 30 ml in drainage bags every eight hours, cited from earlier work
[2] = test system: bacteriuria / bag contamination; conditions: cited from earlier work
[3] = test system: bacterial contamination of the drainage bag; conditions: 30 ml every eight hours; thirty-one patients; cited from earlier work
[4] = test system: types and levels of bacteria in the drainage bag; experiment: One-time instillation and drainage of irrigation solution into urinary drainage bags of long-term catheterized patients; urine cultures at 24-hour intervals; format: in vivo; conditions: for mean values for categories of colony count: score 3 = >100,000, 2 = 10,000 to 100,000, 1 = <10,000; for mean number of different types of organisms identified: about 50 ml one-time dose
Source text: The type of irrigation solution used constituted the independent variable. The irrigation solutions were sterile hydrogen peroxide and sterile distilled vinegar (as used herein, containing about 5 wt. % acetic acid). […] Hydrogen peroxide decomposes rapidly when exposed to light or organic matter. Vinegar is a weak acetic acid solution derived from alcohol by the action of Acetobacter. Vinegar is distilled to remove color and other impurities, yielding what is referred to as white vinegar.
The dependent variables of the investigation were the types and levels of bacteria in the drainage bag, at twenty-four hour intervals of incubation, during treatment conditions. A certified laboratory was contracted to determine the germicidal values of the solutions tested. After twenty-four hours of incubation at about 37° C. […], bacterial growth was recorded at twenty-four hour intervals. Laboratory protocol for reporting types and number of bacteria provided results by identification of the organism by species present in the specimen.
For the study, a total of fifty-seven subjects were initially identified to participate in the study: fifteen from three hospitals and forty-two from ten skilled nursing facilities. […] Patients who were febrile, acutely ill, receiving antibiotic therapy, or with symptoms of urinary tract infection were excluded based on a review of the patient's chart. Patients with other methods of urinary drainage, such as condom catheter drainage, superpubic catheterization, and intermittent urethral catheterization, were not considered. Moreover, because of the chance of cross-infection, infected and uninfected patients with indwelling urinary catheters who shared the same room or adjacent beds were not considered.
The patients were randomly assigned to three experimental groups: one group was designated a control group whose catheter drainage bags were not treated with an irrigation solution; the drainage bags of the remaining groups were treated with one of the two irrigation solutions investigated. The methods of data collection were verified prior to the commencement of the study by use of a literature review and institutional review board pre approval. All urine collection was made between 5:00 A.M. and 6:30 A.M. The urine specimens were promptly refrigerated and transported to the microbiology laboratory. Organisms and colony counts were identified by standard laboratory methods.
The research approach carried out in the study comprised four primary steps: (1) collection of urine from the catheter drainage bags for baseline cultures; (2) instillation of the irrigation solution into the drainage bags; (3) collection of urine from the drainage bags at 24-hour intervals; and (4) evaluation of the results of bacterial growth at 24-hour intervals. The initial concentration of bacteria in each drainage bag was determined prior to instillation of the irrigation solution. With regard to the patients in the groups whose drainage bags were treated with hydrogen peroxide or distilled vinegar, the drainage bags (approximate filled volume of about 50 to 150 ml) were emptied of any residual urine, after which the distal segment of the Foley catheter was clamped to avoid any possibility of reagent reflux into the patient's bladder.

[5] = test system: urinary bag bacterial growth; conditions: daily decontamination with dilute bleach (5.25%); cited from earlier work
[6] = forty-eight hours after instillation

## OO [Hydrogen Peroxide, Hydrogen peroxide]
[1]; P<0.05
  catheter-associated urinary tract infections: significant reduction
[1]
  bags from which bacteria continued to be isolated: five of thirty
[2]; instillation of H2O2, N=238
  rate of bacteriuria: no reduction
[2]; peroxide group, control group 34%, P≦0.05
  rate of bag contamination: 17%
[3]
  bacterial contamination of the drainage bag: could be eliminated effectively
[4]; 00 h (baseline)
  mean values for categories of colony count: 6.2
[4]; 00 h (baseline, before instillation)
  mean number of different types of organisms identified: 2.6
[4]; 24 h
  mean number of different types of organisms identified: 2.3
  mean values for categories of colony count: 5.6
[4]; 48 h
  mean number of different types of organisms identified: 2.1
  mean values for categories of colony count: 5.3
[4]; 72 h
  mean number of different types of organisms identified: 1.5
  mean values for categories of colony count: 3.8
[4]; [6]
  colonies of bacteria compared to the control group (post hoc analysis): no statistically significant difference
  types of organisms compared to the control group (post hoc analysis): no statistically significant difference

## OCl [sodium hypochlorite]
[5]
  bag cultures: ≤ 50 CFU's/ml
  decrease in urinary bag bacterial growth: 76.5%
